Measured values reported in patent US11571453B2, “Piper laetispicum extract and preparation method therefor and use thereof” (SUZHOU YI-HUA BIOMEDICAL TECHNOLOGY CO., LTD, priority 2017, dated 2023).

Columns and labels:
Assay type in all cases: in vivo
mice = assay: Light and dark box test in mice; conditions: 2.0 mg/kg oral, 60 min after dose, 5 min test; n = 10, x ± SD
Protocol: The positive control drug was diazepam. 60 minutes after oral administration, the light and dark box test was implemented. Each mouse is tested for 5 minutes, and each residence time in the light box and the number of shuttles between the light and dark boxes are recorded.

Kunming mice [1] = assay: Mouse tail hanging test; conditions: 50 mg/kg/d oral, 14 days, 1 h after last dose; n=10, x ± SD
Protocol: Kunming mice (male, 18-20 g) were randomly divided into 14 groups, each with 10 rats. […] The positive control group was venlafaxine. Continuous administered for 14 days, one time per day. One hour after the last oral administration, the mouse tail hanging test was carried out. The tails of the mice were glued on a wooden bar 50 cm above the table top to make them stand upside down, and the mouse sight was isolated using plates around. The mice would struggle to overcome the abnormal posture, but appear immobile after a period of activity, showing state of despair Duration was 6 minutes, the time of immobility within 6 minutes was recorded.

Kunming mice [2] = assay: Mouse swimming test; conditions: 50 mg/kg/d oral, 14 days, 1 h after last dose; n=10, x ± SD
Protocol: Kunming mice (male, 18-20 g) were randomly divided into 12 groups, each with 10 rats. Each group was given the corresponding dose of extract as shown in Table 4 and normal saline was used as control. The positive control group was venlafaxine. Continuous administered for 14 days, one time per day. One hour after the last oral administration, the mice were placed into a glass tank of 10×20 cm and water depth of 10 cm (water temperature 25° C.) for a swimming test. The swimming duration was 6 minutes, the time to stop motion within 5 minutes was recorded.

Wistar rats = assay: Rat learned helplessness test (conditional avoidance)
Protocol: Wistar rats were selected and randomly grouped into 10 rats in each group. The learned helplessness test model was used in which the corresponding dose of extracts shown as in Table 5 were administered orally by gavage. The positive control was venlafaxine. Continuous administered for 7 days, one time per day. 24 h after the last oral administration, a conditional avoidance test is implemented.

Row | SMILES | Number of shuttles (mice) | Time (residence time in the light box) (mice) | Immobility time within 6 min (Kunming mice [1]) [s] | Stop motion within 5 min (Kunming mice [2]) [s] | Escape latency (Wistar rats; 30 mg/kg/d oral gavage, 7 days, 24 h after last dose, u test n = 10, x ± SD) [s] | escape latency of the rats, effect in words (Wistar rats; doses of 10, 5, 2.5 mg/kg/d, compared with the model control group P<0.01)
1 | CN1C(=O)CN=C(c2ccccc2)c2cc(Cl)ccc21 [Diazepam, diazepam] | 14.23 ± 1.06 | 121.23 ± 8.12 | – | – | – | –
2 | COc1ccc(C(CN(C)C)C2(O)CCCCC2)cc1 (stereo not drawn) [Venlafaxine, venlafaxine] | – | – | 60.9 ± 38.5 | 75.8 ± 19.4 | 14.15 ± 12.32 | significantly shortened the escape latency
